Data taken from ChEMBL document CHEMBL1201862, “PubChem BioAssay data set” (2004).
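Dose response: 5 concentrations. Exposure: 48 h. Format: 96-well plates. Endpoint: linear interpolation; highest concentration if not reached. GI50 = concentration required for 50% inhibition of growth.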 Calls of active or inactive are those of the source. No stated cut-off is given here; in the data, active = GI50 up to about 1.1 µM and inactive = higher.

Columns and labels:
Experiment in all cases: NCI tumour cell line growth inhibition, 48 h
[1] = system: HCT-116
[2] = system: NCI-H522
[3] = system: OVCAR-5
[4] = system: NCI-H23
[5] = system: SK-OV-3
[6] = system: HL-60
[7] = system: K562
[8] = system: SN12C
[9] = system: NCI-H460
[10] = system: Malme-3M
[11] = system: SF-539
[12] = system: A549
[13] = system: RXF 393
[14] = system: SF-268
[15] = system: SK-MEL-28

Measured: GI50

CC1(C)C(=O)C(C)(C)C1=NNC(N)=S
inactive: [1] > 100 µM | [2] > 100 µM | [3] > 100 µM | [4] > 100 µM | [5] > 100 µM | [6] > 100 µM | [7] > 100 µM | [8] > 100 µM | [9] > 100 µM | [10] > 100 µM | [11] > 100 µM | [12] > 100 µM | [13] > 100 µM | [14] > 100 µM | [15] > 100 µM

NC(CCc1nc(-c2ccc(Cl)cc2)cs1)C(=O)O (stereo not given)
inactive: [1] > 100 µM | [2] > 100 µM | [3] > 100 µM | [4] > 100 µM | [5] > 100 µM | [6] > 100 µM | [8] > 100 µM | [9] > 100 µM | [10] > 100 µM | [12] > 100 µM | [13] > 100 µM | [14] > 100 µM | [15] > 100 µM

CCOC(=O)C1C(NC(N)=O)N(Cc2ccccc2)C(=O)N1Cc1ccccc1 (stereo not given)
inactive: [1] > 100 µM | [2] > 100 µM | [3] 29.3 µM | [4] > 10 µM | [5] > 100 µM | [6] > 100 µM | [7] > 100 µM | [9] > 100 µM | [10] > 100 µM | [11] > 100 µM | [12] > 100 µM | [14] > 100 µM | [15] > 100 µM

COCOCC/C=C/C=O
inactive: [1] > 100 µM | [2] > 100 µM | [3] > 100 µM | [4] > 100 µM | [5] > 100 µM | [6] > 100 µM | [7] > 100 µM | [8] > 100 µM | [9] > 100 µM | [10] > 100 µM | [11] > 100 µM | [12] > 100 µM | [13] > 100 µM | [14] > 100 µM | [15] > 100 µM

O=c1c2ccccc2nc2n1-c1ccccc1SC2
inactive: [1] 47.2 µM | [2] 20.5 µM | [3] > 100 µM | [4] 38.1 µM | [5] > 100 µM | [7] 36.7 µM | [8] 51.2 µM | [9] 40.2 µM | [10] 37.8 µM | [11] > 100 µM | [12] > 100 µM | [13] 58.3 µM | [14] 60 µM | [15] 71.3 µM

CN(C)CCn1cnc2sc3ccccc3c21
inactive: [1] > 100 µM | [2] > 100 µM | [3] > 100 µM | [4] > 100 µM | [5] > 100 µM | [7] > 100 µM | [8] > 100 µM | [9] > 100 µM | [10] > 100 µM | [11] > 100 µM | [12] > 100 µM | [13] 82.8 µM | [14] > 100 µM | [15] > 100 µM

CN(C)CC(C)(C)C(=O)/C=C/c1ccccc1
inactive: [1] 13.5 µM | [2] 10.3 µM | [4] 19.9 µM | [6] 5.58 µM | [7] 5.13 µM | [8] 13.3 µM | [9] 13.9 µM | [10] 11.6 µM | [11] 16.6 µM | [12] 28.8 µM | [13] 11.9 µM | [15] 16 µM

CC(=O)CCn1[nH]c(=O)c(Cl)c(Cl)c1=O
inactive: [1] > 100 µM | [3] > 100 µM | [4] > 100 µM | [6] > 100 µM | [7] > 100 µM | [8] > 100 µM | [9] > 100 µM | [10] > 100 µM | [11] > 100 µM | [12] > 100 µM | [13] > 100 µM | [14] > 100 µM | [15] > 100 µM

Nc1nc(N)c2ncn(CCOC(c3ccccc3)P(=O)(O)O)c2n1 (stereo not given)
inactive: [1] > 100 µM | [2] > 100 µM | [3] > 100 µM | [4] > 100 µM | [5] > 100 µM | [6] > 100 µM | [8] > 100 µM | [9] > 100 µM | [10] > 100 µM | [11] > 100 µM | [12] > 100 µM | [13] > 100 µM | [14] > 100 µM | [15] > 100 µM

Cc1cc(OCC(O)CO)ccc1-c1ccccc1 (stereo not given)
inactive: [1] 77.3 µM | [2] > 100 µM | [4] > 100 µM | [6] 61.1 µM | [7] > 100 µM | [8] > 100 µM | [9] > 100 µM | [10] > 100 µM | [12] > 100 µM | [13] 21.2 µM | [14] > 100 µM | [15] > 100 µM

COc1cc(C(=O)CC2(O)C(=O)Nc3c(Cl)cc(Cl)cc32)ccc1O (stereo not given)
inactive: [2] 47.8 µM | [3] > 100 µM | [4] 59.2 µM | [5] 14.9 µM | [6] 36.2 µM | [7] 35.5 µM | [8] > 100 µM | [9] 75.7 µM | [10] > 100 µM | [12] 55 µM | [13] 27.5 µM | [14] 43.8 µM | [15] > 100 µM

COc1cc(C)c2c(c1C)OC(=O)c1c(C)c(Cl)c(O)c(C=O)c1O2
inactive: [1] 20.8 µM | [3] 27.7 µM | [4] 14.7 µM | [5] 23.4 µM | [6] 9.02 µM | [7] 18.5 µM | [8] 21.8 µM | [9] 17.4 µM | [10] 15.5 µM | [11] 12.2 µM | [12] 12.8 µM | [14] 9.66 µM

O=[N+]([O-])c1ccc2nc3ccscc-3c2c1
inactive: [2] 12.4 µM | [3] 35.3 µM | [4] 11.7 µM | [5] 30.7 µM | [6] 4.81 µM | [7] 4.6 µM | [9] 14.1 µM | [10] 29 µM | [11] 8.49 µM | [12] 18.3 µM | [14] 14.7 µM | [15] 27.8 µM

O=C1N2Cc3c4ccc5c3CN3C(=O)N6Cc7c(ccc(c7CN1C6(c1ccccc1)C23c1ccccc1)OCCOCCNCCOCCO4)OCCOCCNCCOCCO5 (stereo not given)
inactive: [1] 30.8 µM | [2] > 100 µM | [3] > 100 µM | [4] 70.5 µM | [5] 85.9 µM | [7] 69.7 µM | [8] 19.5 µM | [9] 30.5 µM | [10] 23.5 µM | [11] 56.9 µM | [12] 28.6 µM | [13] 33.2 µM | [14] > 100 µM | [15] > 100 µM

Cc1cccc(C)c1NC(=O)CCCC(=O)CC(=O)/C=C/c1ccccc1
inactive: [1] > 100 µM | [2] > 100 µM | [3] > 100 µM | [4] > 100 µM | [5] > 100 µM | [7] > 100 µM | [8] > 100 µM | [9] > 100 µM | [10] > 100 µM | [11] > 100 µM | [12] > 100 µM | [13] > 100 µM | [14] > 100 µM | [15] > 100 µM
